Measurements as given in PubChem BioAssay (NCI).
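The compound was tested at five concentrations on cells cultured in 96-well plates, with a 48-hour exposure period. GI50: concentration for 50% inhibition of growth. TGI is the concentration that stops growth completely.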

Experiments:
Assay in all cases: DTP human tumour cell line panel, 48 h
786-0 renal = test system: 786-0 renal
A498 renal = test system: A498 renal
A549 NSCLC = test system: A549 NSCLC
ACHN renal = test system: ACHN renal
BT-549 breast = test system: BT-549 breast
CAKI-1 renal = test system: CAKI-1 renal
CCRF-CEM leukemia = test system: CCRF-CEM leukemia
COLO 205 colon = test system: COLO 205 colon
DU-145 prostate = test system: DU-145 prostate
EKVX NSCLC = test system: EKVX NSCLC
HCC-2998 colon = test system: HCC-2998 colon
HCT-116 colon = test system: HCT-116 colon
HCT-15 colon = test system: HCT-15 colon
HL-60(TB) leukemia = test system: HL-60(TB) leukemia
HOP-62 NSCLC = test system: HOP-62 NSCLC
HOP-92 NSCLC = test system: HOP-92 NSCLC
HS 578T breast = test system: HS 578T breast
HT29 colon = test system: HT29 colon
IGROV1 ovarian = test system: IGROV1 ovarian
K-562 leukemia = test system: K-562 leukemia
KM12 colon = test system: KM12 colon
LOX IMVI melanoma = test system: LOX IMVI melanoma
M14 melanoma = test system: M14 melanoma
MALME-3M melanoma = test system: MALME-3M melanoma
MCF7 breast = test system: MCF7 breast
MDA-MB-231 breast = test system: MDA-MB-231 breast
MDA-MB-435 = test system: MDA-MB-435
MOLT-4 leukemia = test system: MOLT-4 leukemia
NCI-H226 lung = test system: NCI-H226 lung
NCI-H23 lung = test system: NCI-H23 lung
NCI-H460 lung = test system: NCI-H460 lung
NCI-H522 lung = test system: NCI-H522 lung
NCI/ADR-RES ovarian = test system: NCI/ADR-RES ovarian
OVCAR-3 ovarian = test system: OVCAR-3 ovarian
OVCAR-4 ovarian = test system: OVCAR-4 ovarian
OVCAR-5 ovarian = test system: OVCAR-5 ovarian
OVCAR-8 ovarian = test system: OVCAR-8 ovarian
PC-3 prostate = test system: PC-3 prostate
RPMI-8226 leukemia = test system: RPMI-8226 leukemia
RXF 393 renal = test system: RXF 393 renal
SF-268 CNS = test system: SF-268 CNS
SF-295 CNS = test system: SF-295 CNS
SF-539 CNS = test system: SF-539 CNS
SK-MEL-2 melanoma = test system: SK-MEL-2 melanoma
SK-MEL-28 melanoma = test system: SK-MEL-28 melanoma
SK-MEL-5 melanoma = test system: SK-MEL-5 melanoma
SK-OV-3 ovarian = test system: SK-OV-3 ovarian
SN12C renal = test system: SN12C renal
SNB-19 CNS = test system: SNB-19 CNS
SNB-75 CNS = test system: SNB-75 CNS
SR leukemia = test system: SR leukemia
SW-620 colon = test system: SW-620 colon
T-47D breast = test system: T-47D breast
TK-10 renal = test system: TK-10 renal
U251 CNS = test system: U251 CNS
UACC-257 melanoma = test system: UACC-257 melanoma
UACC-62 melanoma = test system: UACC-62 melanoma
UO-31 renal = test system: UO-31 renal

CCO/C=N/C1=C(C#N)C(c2ccc(OC)cc2)c2sc3c(CC)cccc3c2O1 (stereo unspecified)
GI50 (786-0 renal): 3.06 µM | TGI (786-0 renal): 17.5 µM | GI50 (A498 renal): 0.472 µM | TGI (A498 renal): 7.6 µM | GI50 (A549 NSCLC): 2.59 µM | TGI (A549 NSCLC): 34.1 µM | GI50 (ACHN renal): 3.36 µM | TGI (ACHN renal): 17.2 µM | GI50 (BT-549 breast): 4.56 µM | TGI (BT-549 breast): 19.4 µM | GI50 (CAKI-1 renal): 1.9 µM | TGI (CAKI-1 renal): 19.3 µM | GI50 (CCRF-CEM leukemia): 1.23 µM | TGI (CCRF-CEM leukemia): 20.8 µM | GI50 (COLO 205 colon): 3.52 µM | TGI (COLO 205 colon): 12.9 µM | GI50 (DU-145 prostate): 3.55 µM | TGI (DU-145 prostate): 14.9 µM | GI50 (EKVX NSCLC): 3.47 µM | TGI (EKVX NSCLC): 17.3 µM | GI50 (HCC-2998 colon): 2.01 µM | TGI (HCC-2998 colon): 5.98 µM | GI50 (HCT-116 colon): 1.03 µM | TGI (HCT-116 colon): 11.7 µM | GI50 (HCT-15 colon): 0.92 µM | TGI (HCT-15 colon): 10.4 µM | GI50 (HL-60(TB) leukemia): 1.92 µM | TGI (HL-60(TB) leukemia): 14.5 µM | GI50 (HOP-62 NSCLC): 5.63 µM | TGI (HOP-62 NSCLC): 22.4 µM | GI50 (HOP-92 NSCLC): 1.67 µM | TGI (HOP-92 NSCLC): 16.7 µM | GI50 (HS 578T breast): 2.3 µM | TGI (HS 578T breast): 9.55 µM | GI50 (HT29 colon): 3.22 µM | TGI (HT29 colon): 11.6 µM | GI50 (IGROV1 ovarian): 1.53 µM | TGI (IGROV1 ovarian): 17.5 µM | GI50 (K-562 leukemia): 0.678 µM | TGI (K-562 leukemia): 30.8 µM | GI50 (KM12 colon): 2.63 µM | TGI (KM12 colon): 21.7 µM | GI50 (LOX IMVI melanoma): 2.31 µM | TGI (LOX IMVI melanoma): 14.5 µM | GI50 (M14 melanoma): 1.5 µM | TGI (M14 melanoma): 11.8 µM | GI50 (MALME-3M melanoma): 10.9 µM | TGI (MALME-3M melanoma): 25 µM | GI50 (MCF7 breast): 1.25 µM | TGI (MCF7 breast): 13 µM | GI50 (MDA-MB-231 breast): 4.05 µM | TGI (MDA-MB-231 breast): 24.1 µM | GI50 (MDA-MB-435): 0.373 µM | TGI (MDA-MB-435): 1.51 µM | GI50 (MOLT-4 leukemia): 3.28 µM | TGI (MOLT-4 leukemia): 26.2 µM | GI50 (NCI-H226 lung): 6.65 µM | TGI (NCI-H226 lung): 25.4 µM | GI50 (NCI-H23 lung): 3.09 µM | TGI (NCI-H23 lung): 16.4 µM | GI50 (NCI-H460 lung): 3.46 µM | TGI (NCI-H460 lung): 12.8 µM | GI50 (NCI-H522 lung): 1.18 µM | TGI (NCI-H522 lung): 6.01 µM | GI50 (NCI/ADR-RES ovarian): 0.566 µM | TGI (NCI/ADR-RES ovarian): 13.9 µM | GI50 (OVCAR-3 ovarian): 3.59 µM | TGI (OVCAR-3 ovarian): 18.1 µM | GI50 (OVCAR-4 ovarian): 4.26 µM | TGI (OVCAR-4 ovarian): 16.3 µM | GI50 (OVCAR-5 ovarian): 5.19 µM | TGI (OVCAR-5 ovarian): 18.4 µM | GI50 (OVCAR-8 ovarian): 3.24 µM | TGI (OVCAR-8 ovarian): 18 µM | GI50 (PC-3 prostate): 1.5 µM | TGI (PC-3 prostate): 12.6 µM | GI50 (RPMI-8226 leukemia): 2.74 µM | TGI (RPMI-8226 leukemia): 11.8 µM | GI50 (RXF 393 renal): 1.72 µM | TGI (RXF 393 renal): 4.83 µM | GI50 (SF-268 CNS): 7.49 µM | TGI (SF-268 CNS): 29.2 µM | GI50 (SF-295 CNS): 0.475 µM | TGI (SF-295 CNS): 1.96 µM | GI50 (SF-539 CNS): 1.75 µM | TGI (SF-539 CNS): 4.5 µM | GI50 (SK-MEL-2 melanoma): 5.76 µM | TGI (SK-MEL-2 melanoma): 22.7 µM | GI50 (SK-MEL-28 melanoma): 7.74 µM | TGI (SK-MEL-28 melanoma): 25 µM | GI50 (SK-MEL-5 melanoma): 4.86 µM | TGI (SK-MEL-5 melanoma): 17 µM | GI50 (SK-OV-3 ovarian): 5.3 µM | TGI (SK-OV-3 ovarian): 20.9 µM | GI50 (SN12C renal): 3.73 µM | TGI (SN12C renal): 18.1 µM | GI50 (SNB-19 CNS): 3.35 µM | TGI (SNB-19 CNS): 15.5 µM | GI50 (SNB-75 CNS): 0.366 µM | TGI (SNB-75 CNS): 4.02 µM | GI50 (SR leukemia): 0.821 µM | TGI (SR leukemia): 25 µM | GI50 (SW-620 colon): 1.45 µM | TGI (SW-620 colon): 16.4 µM | GI50 (T-47D breast): 3.13 µM | TGI (T-47D breast): 15.8 µM | GI50 (TK-10 renal): 9.77 µM | TGI (TK-10 renal): 24.2 µM | GI50 (U251 CNS): 3.77 µM | TGI (U251 CNS): 16.3 µM | GI50 (UACC-257 melanoma): 13.1 µM | TGI (UACC-257 melanoma): 38.2 µM | GI50 (UACC-62 melanoma): 1.04 µM | TGI (UACC-62 melanoma): 18.4 µM | GI50 (UO-31 renal): 3.29 µM | TGI (UO-31 renal): 16.1 µM
